Measured values from patent US9115092B2, “Substituted quinazoline and pyrido-pyrimidine derivatives” (Asana Biosciences, LLC, priority 2010, dated 2015).

Experiments:
[1] = target: T1, PI3Kα (wild-type), P110/P85α (Homo sapiens, UniProt P42336); assay: PI3 Kinase TR-FRET assay, PI3Kα (wild-type); type: biochemical
T1 construct: made in house; host or cells: SF9 insect cells
Experimental: The ability of compounds of the invention to inhibit PI3K activity was determined in a homogeneous TR-FRET assay using a PI3K assay kit (Millipore, USA; cat #33-016) according to manufacturer's instructions. PI3-Kinases (isoforms α, β, γ and δ) catalyze the phosphorylation of phosphatidylinositol, PIP2 to PIP3 in the presence of ATP and Mg^2+. The PIP3 product is detected by displacement of biotin-PIP3 from an energy transfer complex consisting of Europium labeled anti-GST monoclonal antibody, a GST-tagged PH domain, biotinylated PIP3 and Streptavidin-APC. Excitation of Europium in the complex results in an energy transfer to the APC and a fluorescence emission at 665 nm. The PIP3 product displaces biotin-PIP3 from the complex resulting in a loss of energy transfer and thus a decrease in signal.
To test for the ability of compounds to inhibit the activity of PI3Kα (wild-type), exemplary compounds of formula (I) were dissolved in DMSO and directly distributed into 384-well plates at a volume of 0.5 μL. 14.5 μL of P110/P85α/PIP2 mixture in buffer (obtained from the Millipore kit) containing MgCl2 (40 mM) and DTT (5 mM) was added to compound wells and incubated for 60 min at room temperature. P110/P85α was expressed in SF9 insect cells and purified nickel column extraction. Five ng of wild-type P110/P85α was used in the assay. The kinase reaction was started by the addition of ATP. The assay concentrations of both PIP2 and ATP were 10 μM. The reaction mixture was incubated for 30 min at room temperature and was terminated by the addition of stop mix and detection mix. Fluorescence was measured at 615 and 665 nm upon excitation at 340 nm in a Victor™ V5 fluorometer (Perkin Elmer, USA). The fluorescence emission ratio at 665 to 615 nm, proportional to the kinase activity, was plotted against the compound concentration to generate dose-response curves and IC50 values were determined using GraphPad Prism® 5 software.

[2] = target: T2, mTOR kinase (Homo sapiens, UniProt P42345); assay: mTOR kinase TR-FRET assay; type: biochemical; settings: read-out: mTO R
T2 construct: purchased Millipore, USA
Experimental: Compound inhibition for mTOR kinase was determined in a homogeneous TR-FRET assay using the Lance® ULight-p70 S6K (Thr 389) peptide (obtained from Perkin-Elmer). The ULight™-labeled synthetic peptide contains the amino acid residues surrounding Thr389 of human p70 S6K. The ULight-p70 S6K peptide is phosphorylated at Thr389 by mTOR. Phosphorylation motif: LGFTYVAP as substrate.
The compound dilution was carried out in 100% DMSO followed by a buffer dilution. The reaction buffer was HEPES (50 mM pH 7.5), EGTA (1 mM), MnCl2 (3 mM). Test compounds at various concentrations were pre-incubated with mTOR (Millipore, USA; 5 ng) for 60 min, and then the Lance® ULight-p70 S6K (Thr 389) peptide (50 nM) was added along with ATP (20 μM). After incubating the reaction mixture for 60 min at room temperature, the kinase reaction was terminated by the addition of EDTA (10 mM) followed by the addition of detection mix, i.e., 1 nM Eu-labeled anti-phospho-substrate antibody (Perkin Elmer, USA). The fluorescence emission at […] was measured upon excitation at 340 nm. IC50 values were subsequently determined using a sigmoidal dose-response curve (variable slope) in GraphPad Prism® 5 software.
Compounds of formula (I) caused inhibition of mTOR kinase activity as determined by this assay.

T1 sequence (P42336 whole entry): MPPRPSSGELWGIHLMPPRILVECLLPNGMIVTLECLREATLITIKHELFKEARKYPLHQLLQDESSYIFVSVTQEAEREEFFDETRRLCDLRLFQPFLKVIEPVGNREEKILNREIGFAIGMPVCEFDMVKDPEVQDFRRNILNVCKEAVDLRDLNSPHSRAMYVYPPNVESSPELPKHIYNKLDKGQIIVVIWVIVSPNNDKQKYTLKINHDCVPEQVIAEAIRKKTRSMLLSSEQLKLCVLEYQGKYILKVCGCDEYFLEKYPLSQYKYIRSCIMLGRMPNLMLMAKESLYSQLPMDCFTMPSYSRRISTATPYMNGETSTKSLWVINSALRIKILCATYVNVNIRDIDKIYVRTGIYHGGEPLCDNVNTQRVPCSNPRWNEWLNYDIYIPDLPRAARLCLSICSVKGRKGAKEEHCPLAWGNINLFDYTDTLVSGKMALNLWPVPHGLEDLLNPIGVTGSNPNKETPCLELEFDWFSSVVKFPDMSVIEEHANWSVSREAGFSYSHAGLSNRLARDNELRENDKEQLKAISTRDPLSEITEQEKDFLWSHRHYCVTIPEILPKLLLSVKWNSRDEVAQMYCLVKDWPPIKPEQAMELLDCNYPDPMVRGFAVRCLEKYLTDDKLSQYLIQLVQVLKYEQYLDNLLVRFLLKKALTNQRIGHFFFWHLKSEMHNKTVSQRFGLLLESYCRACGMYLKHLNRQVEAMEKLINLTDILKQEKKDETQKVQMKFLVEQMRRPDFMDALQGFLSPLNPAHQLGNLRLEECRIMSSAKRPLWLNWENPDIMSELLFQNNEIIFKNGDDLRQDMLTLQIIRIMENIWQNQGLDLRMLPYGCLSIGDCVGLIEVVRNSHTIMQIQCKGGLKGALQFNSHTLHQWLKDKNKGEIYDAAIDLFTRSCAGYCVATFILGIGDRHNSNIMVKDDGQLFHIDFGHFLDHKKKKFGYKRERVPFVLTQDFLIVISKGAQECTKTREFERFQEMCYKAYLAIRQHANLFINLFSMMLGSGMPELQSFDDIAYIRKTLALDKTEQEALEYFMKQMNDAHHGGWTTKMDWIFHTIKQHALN
T1 sequence (P27986 whole entry partner): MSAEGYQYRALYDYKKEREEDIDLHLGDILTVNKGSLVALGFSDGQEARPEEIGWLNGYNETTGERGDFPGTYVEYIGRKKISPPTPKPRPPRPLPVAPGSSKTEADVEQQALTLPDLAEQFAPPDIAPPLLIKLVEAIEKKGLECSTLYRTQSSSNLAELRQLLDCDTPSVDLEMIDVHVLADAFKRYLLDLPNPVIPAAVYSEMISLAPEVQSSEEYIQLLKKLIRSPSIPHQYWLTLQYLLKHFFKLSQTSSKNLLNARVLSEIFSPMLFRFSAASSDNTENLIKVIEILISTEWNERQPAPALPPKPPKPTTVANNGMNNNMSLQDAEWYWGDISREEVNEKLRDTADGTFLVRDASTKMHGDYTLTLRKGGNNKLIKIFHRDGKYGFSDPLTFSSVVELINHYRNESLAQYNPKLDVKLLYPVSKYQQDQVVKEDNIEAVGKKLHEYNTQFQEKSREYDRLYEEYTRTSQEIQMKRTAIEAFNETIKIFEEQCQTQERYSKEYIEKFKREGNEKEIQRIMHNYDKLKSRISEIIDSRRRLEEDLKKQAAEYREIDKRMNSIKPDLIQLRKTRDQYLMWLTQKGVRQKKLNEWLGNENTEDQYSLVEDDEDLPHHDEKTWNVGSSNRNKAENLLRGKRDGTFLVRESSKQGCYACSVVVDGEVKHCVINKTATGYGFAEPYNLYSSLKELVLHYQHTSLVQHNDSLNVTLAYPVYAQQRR

SMILES: Cc1ccc(-c2ccc3c(N4CCOC(C)C4)nc(-c4ccc(NC(=O)Nc5ccc(C(=O)N(C)C)cc5)cc4)nc3c2)o1 (centres unmarked) [Example 142, N,N-dimethyl-4-(3-(4-(7-(5-methylfuran-2-yl)-4-(2-methylmorpholino)quinazolin-2-yl)phenyl)ureido)-benzamide]
- IC50 [1]: 50 to 200 nM
- IC50 [2]: 50 to 200 nM

SMILES: CC1CN(c2nc(-c3ccc(NC(=O)Nc4ccc(C(=O)N(C)C)cc4)c(F)c3)nc3cc(-c4cncnc4)ccc23)CCO1 (centres unmarked) [Example 144, 4-(3-(2-fluoro-4-(4-(2-methylmorpholino)-7-(pyrimidin-5-yl)quinazolin-2-yl)phenyl)ureido)-N,N-dimethyl-benzamide]
- IC50 [1]: 50 to 200 nM
- IC50 [2]: < 50 nM

SMILES: CN(C)C(=O)c1ccc(NC(=O)Nc2ccc(-c3nc(N4CCOCC4)c4ncc(-c5cccnc5F)cc4n3)cc2)c(F)c1 [Example 145, 3-fluoro-4-(3-(4-(7-(2-fluoropyridin-3-yl)-4-morpholino-pyrido[3,2-d]pyrimidin-2-yl)phenyl)ureido)-N,N-dimethyl-benzamide]
- IC50 [1]: < 50 nM
- IC50 [2]: < 50 nM

SMILES: CC1CN(c2nc(-c3ccc(NC(=O)Nc4ccc(C(=O)N(C)C)cc4)cc3)nc3cc(-c4cnn(C)c4)cnc23)CCO1 (centres unmarked) [Example 148, N,N-dimethyl-4-(3-(4-(7-(1-methyl-1H-pyrazol-4-yl)-4-(2-methylmorpholino)pyrido[3,2-d]pyrimidin-2-yl)phenyl)ureido)-benzamide]
- IC50 [1]: < 50 nM
- IC50 [2]: < 50 nM

SMILES: CN(C)C(=O)c1ccc(NC(=O)Nc2ccc(-c3nc(N4CCOCC4)c4cc(F)c(-c5ccco5)cc4n3)cc2)cc1 [Example 149, 4-(3-(4-(6-fluoro-7-(furan-2-yl)-4-morpholino-quinazolin-2-yl)phenyl)ureido)-N,N-dimethyl-benzamide]
- IC50 [1]: 50 to 200 nM
- IC50 [2]: 50 to 200 nM

SMILES: CN(C)C(=O)c1ccc(NC(=O)Nc2ccc(-c3nc(N4CCOCC4)c4ccc(-c5cnc(O)nc5)cc4n3)cc2)cc1 [Example 150, 4-(3-(4-(7-(2-hydroxypyrimidin-5-yl)-4-morpholino-quinazolin-2-yl)phenyl)ureido)-N,N-dimethyl-benzamide]
- IC50 [1]: < 50 nM
- IC50 [2]: < 50 nM

SMILES: COc1ccc(-c2ccc3c(N4CCOCC4)nc(-c4ccc(NC(=O)Nc5ccc(C(=O)N(C)C)cc5)c(F)c4)nc3c2)cn1 [Example 151, 4-(3-(2-fluoro-4-(7-(6-methoxypyridin-3-yl)-4-morpholino-quinazolin-2-yl)phenyl)ureido)-N,N-dimethyl-benzamide]
- IC50 [1]: 50 to 200 nM
- IC50 [2]: 50 to 200 nM

SMILES: CN(C)C(=O)c1ccc(NC(=O)Nc2ccc(-c3nc(N4CCOCC4)c4ncc(-c5cccnc5)cc4n3)cc2)c(F)c1 [Example 153, 3-fluoro-N,N-dimethyl-4-(3-(4-(4-morpholino-7-(pyridin-3-yl)pyrido[3,2-d]pyrimidin-2-yl)phenyl)ureido)-benzamide]
- IC50 [1]: < 50 nM
- IC50 [2]: < 50 nM

SMILES: CN(C)C(=O)c1ccc(NC(=O)Nc2ccc(-c3nc(N4CCOCC4)c4ncc(-c5cncnc5)cc4n3)cc2)c(F)c1 [Example 154, 3-fluoro-N,N-dimethyl-4-(3-(4-(4-morpholino-7-(pyrimidin-5-yl)pyrido[3,2-d]pyrimidin-2-yl)phenyl)ureido)-benzamide]
- IC50 [1]: < 50 nM
- IC50 [2]: < 50 nM

SMILES: CN(C)C(=O)c1ccc(NC(=O)Nc2ccc(-c3nc(N4CCOCC4)c4ccc(-c5ccccn5)cc4n3)cc2F)cc1 [Example 156, 4-(3-(2-fluoro-4-(4-morpholino-7-(pyridin-2-yl)quinazolin-2-yl)phenyl)ureido)-N,N-dimethyl-benzamide]
- IC50 [1]: 50 to 200 nM
- IC50 [2]: 50 to 200 nM

SMILES: COc1ncc(-c2cnc3c(N4CCOCC4)nc(-c4ccc(NC(=O)Nc5ccc(C(=O)N(C)C)cc5F)cc4)nc3c2)cn1 [Example 157, 3-fluoro-4-(3-(4-(7-(2-methoxypyrimidin-5-yl)-4-morpholino-pyrido[3,2-d]pyrimidin-2-yl)phenyl)ureido)-N,N-dimethyl-benzamide]
- IC50 [1]: < 50 nM
- IC50 [2]: < 50 nM

SMILES: CN1CCN(C(=O)c2ccc(NC(=O)Nc3ccc(-c4nc(N5CCOCC5)c5ccc(-c6ccco6)cc5n4)cc3)cc2)CC1 [Example 158, 1-(4-(7-(furan-2-yl)-4-morpholino-quinazolin-2-yl)phenyl)-3-(4-(4-methylpiperazine-1-carbonyl)phenyl)urea]
- IC50 [1]: < 50 nM
- IC50 [2]: 50 to 200 nM

SMILES: Cc1ccc(-c2ccc3c(N4CCOCC4)nc(-c4ccc(NC(=O)Nc5ccc(C(=O)N(C)C)cc5)cc4)nc3c2)cn1 [Example 161, N,N-dimethyl-4-(3-(4-(7-(6-methylpyridin-3-yl)-4-morpholino-quinazolin-2-yl)phenyl)ureido)-benzamide]
- IC50 [1]: < 50 nM
- IC50 [2]: < 50 nM

SMILES: Cc1nn(C)c(C)c1-c1ccc2c(N3CCOCC3)nc(-c3ccc(NC(=O)Nc4ccc(C(=O)N(C)C)cc4)cc3)nc2c1 [Example 162, N,N-dimethyl-4-(3-(4-(4-morpholino-7-(1,3,5-trimethyl-1H-pyrazol-4-yl)quinazolin-2-yl)phenyl)ureido)-benzamide]
- IC50 [1]: < 50 nM
- IC50 [2]: < 50 nM

SMILES: COc1ncccc1-c1ccc2c(N3CCOCC3)nc(-c3ccc(NC(=O)Nc4ccc(C(=O)N(C)C)cc4)cc3)nc2c1 [Example 163, 4-(3-(4-(7-(2-methoxypyridin-3-yl)-4-morpholino-quinazolin-2-yl)phenyl)ureido)-N,N-dimethyl-benzamide]
- IC50 [1]: < 50 nM
- IC50 [2]: < 50 nM

SMILES: CN(C)C(=O)c1ccc(NC(=O)Nc2ccc(-c3nc(N4CCOCC4)c4ccc(-c5cncc(F)c5)cc4n3)cc2)cc1 [Example 164, 4-(3-(4-(7-(5-fluoropyridin-3-yl)-4-morpholino-quinazolin-2-yl)phenyl)ureido)-N,N-dimethyl-benzamide]
- IC50 [1]: < 50 nM
- IC50 [2]: < 50 nM

SMILES: Cc1ncccc1-c1ccc2c(N3CCOCC3)nc(-c3ccc(NC(=O)Nc4ccc(C(=O)N(C)C)cc4)cc3)nc2c1 [Example 165, N,N-dimethyl-4-(3-(4-(7-(2-methylpyridin-3-yl)-4-morpholino-quinazolin-2-yl)phenyl)ureido)-benzamide]
- IC50 [1]: < 50 nM
- IC50 [2]: < 50 nM

SMILES: Cc1ccc(-c2ccc3c(N4CCOCC4)nc(-c4ccc(NC(=O)Nc5ccc(C(=O)N(C)C)cc5F)cc4)nc3c2)cn1 [Example 166, 3-fluoro-N,N-dimethyl-4-(3-(4-(7-(6-methylpyridin-3-yl)-4-morpholino-quinazolin-2-yl)phenyl)ureido)-benzamide]
- IC50 [1]: < 50 nM
- IC50 [2]: < 50 nM

SMILES: Cc1ncccc1-c1ccc2c(N3CCOCC3)nc(-c3ccc(NC(=O)Nc4ccc(C(=O)N(C)C)cc4F)cc3)nc2c1 [Example 167, 3-fluoro-N,N-dimethyl-4-(3-(4-(7-(2-methylpyridin-3-yl)-4-morpholino-quinazolin-2-yl)phenyl)ureido)-benzamide]
- IC50 [1]: < 50 nM
- IC50 [2]: < 50 nM

SMILES: CN(C)C(=O)c1ccc(NC(=O)Nc2ccc(-c3nc(N4CCOCC4)c4ccc(-c5ccccn5)cc4n3)cc2)c(F)c1 [Example 168, 3-fluoro-N,N-dimethyl-4-(3-(4-(4-morpholino-7-(pyridin-2-yl)quinazolin-2-yl)phenyl)ureido)-benzamide]
- IC50 [1]: < 50 nM
- IC50 [2]: < 50 nM

SMILES: COc1ccncc1-c1ccc2c(N3CCOCC3)nc(-c3ccc(NC(=O)Nc4ccc(C(=O)N(C)C)cc4)cc3)nc2c1 [Example 169, 4-(3-(4-(7-(4-methoxypyridin-3-yl)-4-morpholino-quinazolin-2-yl)phenyl)ureido)-N,N-dimethyl-benzamide]
- IC50 [1]: < 50 nM
- IC50 [2]: < 50 nM

SMILES: COc1ccc(-c2ccc3c(N4CCOCC4)nc(-c4ccc(NC(=O)Nc5ccc(C(=O)N(C)C)cc5F)cc4)nc3c2)cn1 [Example 170, 3-fluoro-4-(3-(4-(7-(6-methoxypyridin-3-yl)-4-morpholino-quinazolin-2-yl)phenyl)ureido)-N,N-dimethyl-benzamide]
- IC50 [1]: < 50 nM
- IC50 [2]: 50 to 200 nM
